The values below come from US11603382B2, “Diastereoselective synthesis of phosphate derivatives” (NuCana plc, priority 2015, dated 2023).

Each structure is given as a SMILES string.

Series [1] can be described thus: solubility in mixtures of polar organic solvents with water. It is filed as physicochemical. The source says:
It has recently been discovered that the (S)-epimer of gemcitabine-[phenyl-benzoxy-L-alaninyl)]-phosphate has sufficient solubility in mixtures of a number of polar organic solvents with water to render it suitable for formulation and administration as a therapeutic agent. […] In certain solvent mixtures the difference in solubility between the (S)-epimer and the (R)-epimer is over 100 fold. It is expected therefore that more clinically effective, practical and patient friendly administration methods can be developed using the (S)-epimer than can be developed using the (R)-epimer or using the mixture. It is thus desirable to be able to provide gemcitabine-[phenyl-benzoxy-L-alaninyl)]-(S)-phosphate in substantially diastereoisomerically pure form.

Series [2] relates to isolated human hepatic cells. Description: half-life on incubation with isolated human hepatic cells. Format: in vitro ADME. The text has this: The longer half-life associated with (R)-isomer indicates a lower intrinsic clearance and should result in a different pharmacokinetic and pharmacodynamic profile to the (S)-isomer which may offer some benefits.
The nature of the next series: solubility in water. Format: physicochemical. The note with it: regardless of salt content or pH. Here is the method: NUC-1031 is extremely lipophillic and thus poorly water soluble (by calculation: <0.1 mg/mL), and the ionisable moieties have calculated pKas which lie out-side the pH range suitable for parenteral administration. […] It also has implications for the development of efficient manufacturing processes which will allow NUC-1031 to be produced cost effectively.

`C[C@H](N[P@@](=O)(OC[C@H]1O[C@@H](n2ccc(N)nc2=O)C(F)(F)C1O)Oc1ccccc1)C(=O)OCc1ccccc1` (stereo partly drawn) [(R)-epimer]: the “solubility relative to the (S)-epimer” value in series [1] (mixtures of polar organic solvents with water) is on record as “considerably lower”. Also, the “half-life relative to that of the (S)-epimer” value in series [2] is given as “four times”.

As to `C[C@H](N[P@](=O)(OC[C@H]1O[C@@H](n2ccc(N)nc2=O)C(F)(F)C1O)Oc1ccccc1)C(=O)OCc1ccccc1` (stereo partly drawn) [(S)-epimer], the “difference in solubility between the (S)-epimer and the (R)-epimer” value in series [1] (in certain solvent mixtures (polar organic solvents with water), (S)-epimer over (R)-epimer) is “over 100 fold”.

Regarding `C[C@H](NP(=O)(OC[C@H]1O[C@@H](n2ccc(N)nc2=O)C(F)(F)C1O)Oc1ccccc1)C(=O)OCc1ccccc1` (stereo partly drawn) [NUC-1031, 2′-deoxy-2′,2′-difluoro-D-cytidine-5′-O-[phenyl(benzoxy-L-alaninyl)] phosphate], the solubility in water result in the series “solubility in water” is “essentially insoluble in water”.
